{
  "source": "ChEMBL document CHEMBL2010674",
  "about": "“Structure based design of iminohydantoin BACE1 inhibitors: identification of an orally available, centrally active BACE1 inhibitor” (Bioorg Med Chem Lett, 2012)",
  "key": {"[1]": {"target": "T1, Beta-secretase 1 (Homo sapiens, UniProt P56817)", "T1 sequence (P56817 whole entry)": "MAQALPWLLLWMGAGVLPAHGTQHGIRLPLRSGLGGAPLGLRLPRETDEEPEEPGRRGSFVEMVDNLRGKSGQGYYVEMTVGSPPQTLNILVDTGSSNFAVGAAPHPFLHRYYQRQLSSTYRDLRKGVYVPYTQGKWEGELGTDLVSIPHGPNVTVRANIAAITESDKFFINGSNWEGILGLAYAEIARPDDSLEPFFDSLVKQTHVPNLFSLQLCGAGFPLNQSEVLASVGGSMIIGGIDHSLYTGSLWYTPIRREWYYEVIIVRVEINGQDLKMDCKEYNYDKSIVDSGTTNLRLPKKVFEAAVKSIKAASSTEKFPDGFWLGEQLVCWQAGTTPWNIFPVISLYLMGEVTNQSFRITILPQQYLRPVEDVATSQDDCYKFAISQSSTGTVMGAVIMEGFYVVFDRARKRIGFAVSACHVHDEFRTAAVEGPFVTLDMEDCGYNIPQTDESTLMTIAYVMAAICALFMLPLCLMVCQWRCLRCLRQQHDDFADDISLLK", "description": "Inhibition of BACE1 in HEK293 cells expressing APP swedish and london mutant assessed as decrease of amyloid-beta40 level after 4 hrs by electrochemiluminescence-based sandwich ELISA"}, "[2]": {"target": "T1, Beta-secretase 1", "remark": "listed apart in the source"}, "[3]": {"target": "T2, Beta-secretase 2 (Homo sapiens, UniProt Q9Y5Z0)", "T2 sequence (Q9Y5Z0 whole entry)": "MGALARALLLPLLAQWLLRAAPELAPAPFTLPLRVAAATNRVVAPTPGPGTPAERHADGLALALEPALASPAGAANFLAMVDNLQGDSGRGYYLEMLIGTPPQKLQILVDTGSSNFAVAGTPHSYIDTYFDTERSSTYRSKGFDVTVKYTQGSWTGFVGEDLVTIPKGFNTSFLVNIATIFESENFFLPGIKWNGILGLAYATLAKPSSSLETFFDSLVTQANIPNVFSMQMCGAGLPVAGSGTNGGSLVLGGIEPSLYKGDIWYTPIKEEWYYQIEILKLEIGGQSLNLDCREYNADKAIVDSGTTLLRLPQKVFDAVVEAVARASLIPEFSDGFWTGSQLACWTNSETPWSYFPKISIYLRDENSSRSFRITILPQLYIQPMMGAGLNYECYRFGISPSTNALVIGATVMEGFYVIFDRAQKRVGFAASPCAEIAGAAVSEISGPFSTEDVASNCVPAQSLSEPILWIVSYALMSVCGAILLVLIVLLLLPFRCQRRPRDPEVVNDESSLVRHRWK"}, "[4]": {"tested_on": "Rattus norvegicus", "assay": "Antialzheimer activity in Sprague-Dawley rat assessed as reduction in amyloid beta40 level in CSF at 30 mg/kg, po after 3 hrs relative to vehicle treated control", "format": "functional", "parameters": "scale not given: the % may be the effect or the level left"}, "[5]": {"tested_on": "Rattus norvegicus", "assay": "Antialzheimer activity in Sprague-Dawley rat assessed as reduction in amyloid beta40 level in plasma at 30 mg/kg, po after 3 hrs relative to vehicle treated control", "format": "functional", "parameters": "scale not given: the % may be the effect or the level left"}, "[6]": {"assay": "Ratio of drug level in brain to plasma in Sprague-Dawley rat at 30 mg/kg, po", "format": "ADME, organism-based", "parameters": "dose 30 mg/kg, route oral", "conditions": "read-out: BPR"}, "[7]": {"tested_on": "Plasma", "assay": "Plasma concentration in Sprague-Dawley rat at 30 mg/kg, po", "format": "ADME, organism-based", "parameters": "dose 30 mg/kg, route oral", "conditions": "in vivo"}, "[8]": {"assay": "AUC (0 to 6 hrs) in rat at 10 mg/kg, po", "format": "ADME, organism-based", "parameters": "time < 6 hr, dose 10 mg/kg, route oral", "conditions": "plasma"}, "[9]": {"assay": "Ratio of drug level in brain to plasma in rat at 10 mg/kg, po", "format": "ADME, organism-based", "parameters": "dose 10 mg/kg, route oral", "conditions": "read-out: BPR"}},
  "note": "pIC50, pKi: −log10 of the molar value.",
  "data": [
    {"smiles": "CN1C(=N)NC(c2cccnc2)(c2cccc(-c3cccc(Cl)c3)c2)C1=O", "note": "(configuration not stated)", "values": [
      {"measurement": "pIC50", "setting": "[1]", "value": 5.36},
      {"measurement": "pKi", "setting": "[2]", "value": 6.77}
    ]},
    {"smiles": "CN1C(=N)NC(c2cccc(-c3cncc(F)c3)c2)(C2CC2)C1=O", "note": "(configuration not stated)", "values": [
      {"measurement": "pKi", "setting": "[3]", "value": 6.86},
      {"measurement": "pIC50", "setting": "[1]", "value": 6.10},
      {"measurement": "pKi", "setting": "[2]", "value": 6.80}
    ]},
    {"smiles": "CN1C(=N)NC(c2cccc(-c3cccc(Cl)c3)c2)(C2CC2)C1=O", "note": "(configuration not stated)", "values": [
      {"measurement": "pIC50", "setting": "[1]", "value": 5.72},
      {"measurement": "pKi", "setting": "[2]", "value": 7.33}
    ]},
    {"smiles": "CN1C(=N)NC(c2cccc(-c3cc(Cl)cc(Cl)c3)c2)(C2CC2)C1=O", "note": "(configuration not stated)", "values": [
      {"measurement": "pIC50", "setting": "[1]", "value": 5.62},
      {"measurement": "pKi", "setting": "[2]", "value": 7.52}
    ]},
    {"smiles": "CN1C(=N)NC(c2cccc(-c3cccc(C#N)c3)c2)(C2CC2)C1=O", "note": "(configuration not stated)", "values": [
      {"measurement": "pKi", "setting": "[3]", "value": 7.52},
      {"measurement": "pIC50", "setting": "[1]", "value": 6.03},
      {"measurement": "pKi", "setting": "[2]", "value": 6.89}
    ]},
    {"smiles": "CN1C(=N)NC(c2ccccc2)(c2cccc(-c3cnccn3)c2)C1=O", "note": "(racemic)", "values": [
      {"measurement": "pKi", "setting": "[2]", "value": 6.51}
    ]},
    {"smiles": "CN1C(=O)C(c2ccccc2)(c2cccc(Cl)c2)N=C1N", "note": "(racemic)", "values": [
      {"measurement": "pKi", "setting": "[2]", "value": 6.52}
    ]},
    {"smiles": "Cc1cncc(-c2cccc(C3(C4CC4)NC(=N)N(C)C3=O)c2)c1", "note": "(configuration not stated)", "values": [
      {"measurement": "pKi", "setting": "[3]", "value": 7.17},
      {"measurement": "pIC50", "setting": "[1]", "value": 6.19},
      {"measurement": "pKi", "setting": "[2]", "value": 6.60}
    ]},
    {"smiles": "CN1C(=N)NC(c2cccc(-c3cccc(Cl)c3)c2)(C2CCCC2)C1=O", "note": "(configuration not stated)", "values": [
      {"measurement": "pIC50", "setting": "[1]", "value": 5.16},
      {"measurement": "pKi", "setting": "[2]", "value": 6.33}
    ]},
    {"smiles": "CN1C(=N)NC(c2cccc(-c3cccc(Cl)c3)c2)(c2ccccn2)C1=O", "note": "(configuration not stated)", "values": [
      {"measurement": "pIC50", "setting": "[1]", "value": 5.23},
      {"measurement": "pKi", "setting": "[2]", "value": 6.07}
    ]},
    {"smiles": "CN1C(=N)NC(C)(c2cccc(-c3cccc(Cl)c3)c2)C1=O", "note": "(configuration not stated)", "values": [
      {"measurement": "pIC50", "setting": "[1]", "value": 5.32},
      {"measurement": "pKi", "setting": "[2]", "value": 6.14}
    ]},
    {"smiles": "CN1C(=N)NC(c2ccccc2)(c2cccc(-c3ccccc3)c2)C1=O", "note": "(racemic)", "values": [
      {"measurement": "pKi", "setting": "[2]", "value": 5.48}
    ]},
    {"smiles": "CN1C(=N)NC(c2ccncc2)(c2cccc(-c3cccc(Cl)c3)c2)C1=O", "note": "(configuration not stated)", "values": [
      {"measurement": "pKi", "setting": "[2]", "value": "< 5.00"}
    ]},
    {"smiles": "CN1C(=N)NC(c2ccccc2)(c2cccc(-c3cncc(Cl)c3)c2)C1=O", "note": "(racemic)", "values": [
      {"measurement": "pKi", "setting": "[2]", "value": 7.05}
    ]},
    {"smiles": "CN1C(=O)C(c2ccccc2)(c2cccc(C#N)c2)N=C1N", "note": "(racemic)", "values": [
      {"measurement": "pKi", "setting": "[2]", "value": 6.43}
    ]},
    {"smiles": "CN1C(=O)C(c2ccccc2)(c2cccc(-c3ccncc3)c2)N=C1N", "note": "(racemic)", "values": [
      {"measurement": "pKi", "setting": "[2]", "value": 5.42}
    ]},
    {"smiles": "CN1C(=N)NC(c2cccc(-c3cncc(C#N)c3)c2)(C2CC2)C1=O", "note": "(configuration not stated)", "values": [
      {"measurement": "pKi", "setting": "[3]", "value": 6.77},
      {"measurement": "pIC50", "setting": "[1]", "value": 6.21},
      {"measurement": "pKi", "setting": "[2]", "value": 6.57}
    ]},
    {"smiles": "CN1C(=N)NC(c2ccccc2)(c2cccc(-c3cncc(C#N)c3)c2)C1=O", "note": "(racemic)", "values": [
      {"measurement": "pKi", "setting": "[2]", "value": 6.33}
    ]},
    {"smiles": "CCC1(c2cccc(-c3cccc(Cl)c3)c2)NC(=N)N(C)C1=O", "note": "(configuration not stated)", "values": [
      {"measurement": "pIC50", "setting": "[1]", "value": 5.28},
      {"measurement": "pKi", "setting": "[2]", "value": 6.35}
    ]},
    {"smiles": "CC#Cc1cncc(-c2cccc([C@@]3(C4CC4)NC(=N)N(C)C3=O)c2)c1", "values": [
      {"measurement": "Activity", "setting": "[4]", "value": 54, "unit": "%"},
      {"measurement": "pIC50", "setting": "[1]", "value": 7.09},
      {"measurement": "Activity", "setting": "[5]", "value": 85, "unit": "%"},
      {"measurement": "pKi", "setting": "[2]", "value": 8.27},
      {"measurement": "Kp", "setting": "[6]", "value": 0.2},
      {"measurement": "concentration", "setting": "[7]", "value": 4.2, "unit": "µM"},
      {"measurement": "AUC(0-t) at 6 h", "setting": "[8]", "value": 17.9, "unit": "µM·h"},
      {"measurement": "Kp", "setting": "[9]", "value": 0.3}
    ]},
    {"smiles": "CN1C(=N)NC(c2ccccc2)(c2cccc(F)c2)C1=O", "note": "(racemic)", "values": [
      {"measurement": "pKi", "setting": "[2]", "value": 6.14}
    ]},
    {"smiles": "CCOc1cccc(-c2cccc(C3(c4ccccc4)N=C(N)N(C)C3=O)c2)c1", "note": "(racemic)", "values": [
      {"measurement": "pKi", "setting": "[2]", "value": 6.34}
    ]},
    {"smiles": "CN1C(=N)NC(c2cccc(-c3cccc(Cl)c3)c2)(C2CCC2)C1=O", "note": "(configuration not stated)", "values": [
      {"measurement": "pIC50", "setting": "[1]", "value": 5.55},
      {"measurement": "pKi", "setting": "[2]", "value": 6.96}
    ]},
    {"smiles": "CN1C(=N)NC(c2ccccc2)(c2cccc(-c3cncc(F)c3)c2)C1=O", "note": "(racemic)", "values": [
      {"measurement": "pKi", "setting": "[2]", "value": 6.54}
    ]},
    {"smiles": "Cc1cccc(C2(c3ccccc3)N=C(N)N(C)C2=O)c1", "note": "(racemic)", "values": [
      {"measurement": "pKi", "setting": "[2]", "value": 6.26}
    ]},
    {"smiles": "COc1ccc(-c2cccc(C3(c4ccccc4)NC(=N)N(C)C3=O)c2)cc1", "note": "(racemic)", "values": [
      {"measurement": "pKi", "setting": "[2]", "value": 5.42}
    ]},
    {"smiles": "COc1cccc(-c2cccc(C3(C4CC4)NC(=N)N(C)C3=O)c2)c1", "note": "(configuration not stated)", "values": [
      {"measurement": "pKi", "setting": "[3]", "value": 8.11}
    ]},
    {"smiles": "CN1C(=N)N[C@@](c2cccc(-c3cncc(Cl)c3)c2)(C2CC2)C1=O", "values": [
      {"measurement": "AUC(0-t) at 6 h", "setting": "[8]", "value": 3.1, "unit": "µM·h"}
    ]},
    {"smiles": "CN1C(=N)NC(c2cccc(-c3cccnc3)c2)(C2CC2)C1=O", "note": "(configuration not stated)", "values": [
      {"measurement": "pKi", "setting": "[3]", "value": 6.44},
      {"measurement": "pIC50", "setting": "[1]", "value": 6.06},
      {"measurement": "pKi", "setting": "[2]", "value": 6.57}
    ]},
    {"smiles": "COc1cncc(-c2cccc(C3(C4CC4)NC(=N)N(C)C3=O)c2)c1", "note": "(configuration not stated)", "values": [
      {"measurement": "pKi", "setting": "[3]", "value": 7.96},
      {"measurement": "pIC50", "setting": "[1]", "value": 6.41},
      {"measurement": "pKi", "setting": "[2]", "value": 7.00}
    ]},
    {"smiles": "CN1C(=N)NC(c2cncnc2)(c2cccc(-c3cccc(Cl)c3)c2)C1=O", "note": "(configuration not stated)", "values": [
      {"measurement": "pIC50", "setting": "[1]", "value": 4.68},
      {"measurement": "pKi", "setting": "[2]", "value": 6.08}
    ]},
    {"smiles": "CC(C)C1(c2cccc(-c3cccc(Cl)c3)c2)NC(=N)N(C)C1=O", "note": "(configuration not stated)", "values": [
      {"measurement": "pIC50", "setting": "[1]", "value": 5.34},
      {"measurement": "pKi", "setting": "[2]", "value": 6.49}
    ]},
    {"smiles": "Cc1cncc(-c2cccc(C3(c4ccccc4)NC(=N)N(C)C3=O)c2)c1", "note": "(racemic)", "values": [
      {"measurement": "pKi", "setting": "[2]", "value": 6.37}
    ]}
  ]
}
